Assay results from ChEMBL document CHEMBL1201862, “PubChem BioAssay data set” (2004).
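Five concentrations, 48 hours, 96-well plates. Here, GI50 denotes the concentration required for 50% inhibition of growth.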 The source made the active and inactive calls. No stated cut-off is given here; in the data, active = GI50 up to about 1.1 µM and inactive = higher.

Columns and labels:
Test in all cases: NCI tumour cell line growth inhibition, 48 h
SN12C = test system: SN12C
TK-10 = test system: TK-10
HOP-62 = test system: HOP-62
CCRF-CEM = test system: CCRF-CEM
M14 = test system: M14
MDA-MB-435 = test system: MDA-MB-435
A498 = test system: A498
SF-539 = test system: SF-539
OVCAR-4 = test system: OVCAR-4
BT-549 = test system: BT-549
NCI-H23 = test system: NCI-H23
SK-MEL-2 = test system: SK-MEL-2
IGROV-1 = test system: IGROV-1
HCT-116 = test system: HCT-116
A549 = test system: A549
NCI-H460 = test system: NCI-H460
SK-MEL-5 = test system: SK-MEL-5
MDA-N = test system: MDA-N
NCI-H226 = test system: NCI-H226

For `O=C(O)c1ccc(SSc2ccc(C(=O)O)cn2)nc1`, the GI50 (SN12C) was > 100 µM (inactive), the GI50 (TK-10) was > 100 µM (inactive) and the GI50 (HOP-62) was > 100 µM (inactive). The GI50 (CCRF-CEM) was > 100 µM (inactive), the GI50 (M14) was > 100 µM (inactive) and the GI50 (MDA-MB-435) was > 100 µM (inactive). The GI50 (A498) was > 100 µM (inactive), the GI50 (SF-539) was > 100 µM (inactive) and the GI50 (OVCAR-4) was > 100 µM (inactive). The GI50 (BT-549) was > 100 µM (inactive), the GI50 (NCI-H23) was > 100 µM (inactive) and the GI50 (SK-MEL-2) was > 100 µM (inactive). The GI50 (IGROV-1) was > 100 µM (inactive), the GI50 (HCT-116) was > 100 µM (inactive) and the GI50 (A549) was > 100 µM (inactive). The GI50 (NCI-H460) was > 100 µM (inactive), the GI50 (SK-MEL-5) was > 100 µM (inactive) and the GI50 (MDA-N) was > 100 µM (inactive). For the same compound, the GI50 (NCI-H226) was 72.3 µM (inactive).

For `CCOc1cc2c(cc1O)C(=O)C[C@@H]1[C@@H]2CC[C@]2(C)[C@@H](O)CC[C@@H]12`, the GI50 (SN12C) was 0.353 µM (active), the GI50 (TK-10) was > 13.4 µM (inactive) and the GI50 (HOP-62) was 0.213 µM (active). The GI50 (CCRF-CEM) was 0.162 µM (active), the GI50 (M14) was 0.385 µM (active) and the GI50 (MDA-MB-435) was 0.0197 µM (active). For the same compound, the GI50 (A498) was 0.269 µM (active), the GI50 (SF-539) was 0.155 µM (active) and the GI50 (OVCAR-4) was 35.1 µM (inactive). The GI50 (BT-549) was 0.15 µM (active), the GI50 (NCI-H23) was 0.33 µM (active) and the GI50 (SK-MEL-2) was 4.85 µM (inactive). For the same compound, the GI50 (IGROV-1) was 0.861 µM (active), the GI50 (HCT-116) was 0.144 µM (active) and the GI50 (A549) was 0.877 µM (active). The GI50 (NCI-H460) was 0.0982 µM (active), the GI50 (SK-MEL-5) was 0.0634 µM (active) and the GI50 (MDA-N) was 0.0212 µM (active). The GI50 (NCI-H226) was 0.561 µM (active).

With `O/N=C\c1c2c(cc3c1CCC3)CCC2` the GI50 (SN12C) was > 100 µM (inactive), the GI50 (TK-10) was > 100 µM (inactive) and the GI50 (HOP-62) was > 100 µM (inactive). For the same compound, the GI50 (CCRF-CEM) was > 100 µM (inactive), the GI50 (M14) was > 100 µM (inactive) and the GI50 (MDA-MB-435) was > 100 µM (inactive). For the same compound, the GI50 (A498) was 34.1 µM (inactive), the GI50 (SF-539) was > 100 µM (inactive) and the GI50 (OVCAR-4) was > 100 µM (inactive). For the same compound, the GI50 (BT-549) was > 100 µM (inactive), the GI50 (NCI-H23) was > 100 µM (inactive) and the GI50 (SK-MEL-2) was > 100 µM (inactive). For the same compound, the GI50 (IGROV-1) was > 100 µM (inactive), the GI50 (HCT-116) was > 100 µM (inactive) and the GI50 (A549) was > 100 µM (inactive). For the same compound, the GI50 (NCI-H460) was > 100 µM (inactive), the GI50 (SK-MEL-5) was > 100 µM (inactive) and the GI50 (MDA-N) was > 100 µM (inactive). The GI50 (NCI-H226) was > 100 µM (inactive).

`CC1OC(OC2C(O[C@H]3CC[C@@]4(C)C(=CC[C@H]5[C@@H]6C[C@@H]7O[C@]8(CC[C@@H](C)CO8)[C@@H](C)[C@@H]7[C@@]6(C)CC[C@@H]54)C3)OC(CO)C(OC3OC(CO)C(O)C3O)C2O)C(O)C(O)C1O` (stereo partly specified) was tested, and the GI50 (SN12C) was 0.571 µM (active), the GI50 (TK-10) was 0.989 µM (active) and the GI50 (HOP-62) was 0.897 µM (active). The GI50 (CCRF-CEM) was 0.16 µM (active), the GI50 (M14) was 0.745 µM (active) and the GI50 (MDA-MB-435) was 0.869 µM (active). For the same compound, the GI50 (A498) was 0.881 µM (active), the GI50 (SF-539) was 0.644 µM (active) and the GI50 (OVCAR-4) was 0.931 µM (active). The GI50 (BT-549) was 0.975 µM (active), the GI50 (NCI-H23) was 0.836 µM (active) and the GI50 (SK-MEL-2) was 1.01 µM (active). The GI50 (IGROV-1) was 0.847 µM (active), the GI50 (HCT-116) was 0.851 µM (active) and the GI50 (A549) was 0.634 µM (active). For the same compound, the GI50 (NCI-H460) was 0.438 µM (active), the GI50 (SK-MEL-5) was 0.746 µM (active) and the GI50 (MDA-N) was 0.752 µM (active). The GI50 (NCI-H226) was 0.867 µM (active).
